Laboratory results: US20230295729A1, “METHODS FOR DETECTING AND TREATING PROGESTERONE-RESISTANT INFERTILITY” (The Feinstein Institutes for Medical Research, priority 2022, published 2023)
“Also recorded” adds a separate entry of the source.

Key:
[1] = system: endometrial stromal cells (eSCs); experiment: Decidualization of menstrual effluent-derived eSCs induced by cAMP ± MPA, IGFBP1 and PRL by ELISA; format: cell-based, human; settings: for potentiation of decidualization: comparators tested in the same eSC system as quercetin; for cAMP-induced decidualization (IGFBP1 and PRL production): quercetin 25 μM 4 hr before cAMP 0.5 mM for 48 hr, vs vehicle; for cAMP+MPA-induced decidualization (IGFBP1 and PRL production): control- and case-eSCs, quercetin 25 μM 4 hr before cAMP 0.5 mM + 0.1 μM MPA for 48 hr
Method: Methods: eSCs were isolated from menstrual effluent (ME) obtained from healthy controls and surgically diagnosed endometriosis cases. To induce decidualization, passage 2-3 eSCs DMEM 2% MSC-FBS were treated with dibutryl-cAMP (cAMP, 0.5 mM)±10^-7 M medroxyprogesterone acetate (MPA) for 48 hr. eSCs were pre-treated with vehicle or quercetin (25 μM) 4 hr prior to decidualization. PRL and IGFBP1 protein and mRNA in the culture supernatants and cells, respectively, were assessed by ELISA and RT-qPCR, respectively. Endometrial stromal cells (eSCs) were isolated and grown in DMEM 10% MSC-FBS, PSQ, normocin. Passage 2-3 eSCs were split into 96 well plates or 6-well plates in DMEM 10% MSC-FBS. After overnight culture in DMEM 2% MSC-FBS, decidualization of eSCs was induced after exposure to vehicle or 25 μM quercetin for 4 hrs, followed by 0.5 mM cAMP±0.1 μM MPA for 48 hrs. Decidualization was assessed by measuring IGFBP1 and/or PRL levels in the culture supernatants by ELISA. Progesterone sensitivity was also assessed by measuring progesterone-induced genes. Two sample t tests (unpaired or paired) were used to determine significance. Assessment of progesterone sensitive genes eSCs were treated vehicle or 25 μM quercetin for 4h followed by veh or 0.5 mM cAMP+0.1 uM MPA for 6h; RNA was isolated; and qPCR was performed for the P4 sensitives gene: HAND2, or other P4 target genes.
Roughly 30-50% of endometriosis patient experience infertility. The cause of endometriosis and its link to infertility is not completely understood. It has been shown that endometrial stromal cells (eSCs) from patients with endometriosis show decreased decidualization, a progesterone-driven process critical for implantation. Quercetin is a flavonoid with anti-inflammatory and immunomodulatory activities. […] In addition, quercetin improves infertility in patients with polycystic ovary syndrome (PCOS). We assessed the effect of quercetin on decidualization and progesterone sensitivity using eSCs. Methods: eSCs were isolated from menstrual effluent (ME) obtained from healthy controls and surgically diagnosed endometriosis cases. To induce decidualization, passage 2-3 eSCs were treated with dibutryl-cAMP (cAMP, 0.25-0.5 mM)±10^-7M medroxyprogesterone acetate (MPA) for 48 hr. eSCs were pre-treated with vehicle or quercetin (25 μM) 4 hr prior to decidualization. PRL and IGFBP1 protein and mRNA in the culture supernatants and cells, respectively, were assessed by ELISA and RT-qPCR, respectively. Progesterone sensitivity was also assessed by measuring progesterone-induced genes, PLZF and IHH. Two sample t tests (unpaired or paired) were used to determine significance.

[2] = system: patients with polycystic ovary syndrome (PCOS); settings: cited from earlier work
[3] = system: endometrial implants; settings: rat model of endometriosis; cited from earlier work
[4] = system: P4 target genes (HAND2, PLZF, IHH) in endometrial stromal cells; experiment: Progesterone (P4) target gene expression in eSCs by qPCR after quercetin pre-treatment; format: cell-based, human; settings: control- and case-eSCs, p<0.05; for HAND2 mRNA expression (P4 target gene): quercetin 25 μM 4 h, then vehicle or 0.5 mM cAMP + 0.1 μM MPA 6 h, qPCR
Method: Endometrial stromal cells (eSCs) were isolated and grown in DMEM 10% MSC-FBS, PSQ, normocin. Passage 2-3 eSCs were split into 96 well plates or 6-well plates in DMEM 10% MSC-FBS. After overnight culture in DMEM 2% MSC-FBS, decidualization of eSCs was induced after exposure to vehicle or 25 μM quercetin for 4 hrs, followed by 0.5 mM cAMP±0.1 μM MPA for 48 hrs. […] Progesterone sensitivity was also assessed by measuring progesterone-induced genes. Two sample t tests (unpaired or paired) were used to determine significance. Assessment of progesterone sensitive genes eSCs were treated vehicle or 25 μM quercetin for 4h followed by veh or 0.5 mM cAMP+0.1 uM MPA for 6h; RNA was isolated; and qPCR was performed for the P4 sensitives gene: HAND2, or other P4 target genes. […] Progesterone sensitivity was also assessed by measuring progesterone-induced genes, PLZF and IHH.

[5] = system: endometrial stromal cells; experiment: SASP protein expression in endometrial stromal cells by western blotting; format: cell-based, human; settings: quercetin 25 μM vs vehicle, DMEM 2% FBS, 2 days, confluent cells; normalised to GAPDH
Method: FIGS. 4A-4B: Quercetin-treatment of endometrial stromal cells reduces the senescence-associated secretory phenotype (SASP) and the expression SASP proteins. (4A) Treatment of confluent endometrial stromal cells with vehicle (Veh) vs. quercetin (25 μM, Q+) in DMEM 2% FBS for 2 days alters the expression of SASP proteins (or SASPs, IL-1β, TNF-membrane form [TNF-MF], TNF-soluble form [TNF-SF], MMP3, and Lamin B1 [LamB1*] vs. GAPDH [housekeeping protein for normalization]) by endometrial stromal cells, as determined by western blotting. Relative molecular weight markers (MWM) are shown on the left. (4B) Quantification of Veh-treated vs. Q-treated protein bands are shown in 4B. *Note: All proteins are positive SASPs (increased protein expression positively correlates with senescence), except LAMB1, which is lost with the senescence phenotype. Quercetin reduces senescence-associated secretory phenotype or SASP.

[6] = system: menstrual effluent-derived eSCs (ME-eSCs); experiment: MPA-stimulated gene expression in ME-eSCs of endometriosis cases and controls (qPCR, scRNA-seq); format: cell-based, human
Method: Methods: Low passage (p2-3) menstrual effluent-derived eSCs (ME-eSCs) obtained from women with confirmed endometriosis or healthy controls were stimulated with vehicle or MPA, a stable P4 analogue. qPCR and single cell RNA-seq (scRNA-seq, n=4 controls and 4 cases) were used to measure P4-induced gene expression and identify dysregulated pathways. Subcellular localization of PR isoforms and the PR chaperone protein, FKBP52, was assessed using immunofluorescent microscopy and western blotting of total, nuclear, and cytoplasmic preparations of ME-eSCs±MPA stimulation.

[7] = ME-eSCs from cases vs. controls, qPCR
[8] = scRNA-seq, n=4 controls and 4 cases

O=C(O)c1ccccc1O [SA, salicylic acid, reference compound]
potentiation of decidualization [1]: did not potentiate decidualization

O=c1c(O)c(-c2ccc(O)c(O)c2)oc2cc(O)cc(O)c12 [Quercetin, quercetin]
infertility in PCOS patients [2]: improves
anti-inflammatory effects [3]: exerted anti-inflammatory effects
growth of endometrial implants [3]: inhibited
HAND2 mRNA expression (P4 target gene) [4]: increases
HAND2 mRNA expression (P4 target gene) ([4]; listed as quercetin): significantly increased over vehicle
MPA-induced IHH mRNA expression ([4]; quercetin 25 μM vs vehicle): significantly increased over vehicle
MPA-induced PLZF mRNA expression ([4]; quercetin 25 μM vs vehicle): significantly increased over vehicle
cAMP-induced decidualization (IGFBP1 and PRL production) ([1]; case-eSCs (endometriosis), p<0.05): significantly enhanced; also recorded: increased
cAMP+MPA-induced decidualization (IGFBP1 and PRL production) ([1]; p<0.05): increased
cAMP+MPA-induced decidualization (IGFBP1 and PRL production) ([1]; p<0.05, listed as quercetin): significantly enhanced; also recorded: further enhances
cAMP-induced decidualization (IGFBP1 and PRL production) ([1]; control-eSCs, p<0.02): significantly enhanced; also recorded: increased
senescence-associated secretory phenotype (SASP) and expression of SASP proteins (IL-1β, TNF-MF, TNF-SF, MMP3, Lamin B1) [5]: reduces

CC(=O)O[C@]1(C(C)=O)CC[C@H]2[C@@H]3C[C@H](C)C4=CC(=O)CC[C@]4(C)[C@H]3CC[C@@]21C [MPA, medroxyprogesterone acetate]
potentiation of cAMP-induced decidualization by addition of MPA ([1]; control-eSCs, 0.1 μM MPA with cAMP, 48 hr): potentiates
MPA-stimulated IHH gene expression [6, 7]: significantly blunted
MPA-stimulated PLZF gene expression [6, 7]: significantly blunted
MPA-induced expression of CEBPD, DKK1, FABP4, MGP, and NNMT [6, 8]: significantly unregulated in controls only
MPA-induced expression of IGFBP5, MALAT1, DIO2, and KRT17 [6, 8]: significantly downregulated in controls only

CC(C)Cc1ccc(C(C)C(=O)O)cc1 (stereo not shown) [ibuprofen, reference compound]
potentiation of decidualization [1]: did not potentiate decidualization
